In ChEMBL document CHEMBL1131926, “Synthesis and thromboxane A2 antagonistic activity of indane derivatives” (Bioorg Med Chem Lett, 1999):

Columns and labels:
Thromboxane A2 receptor = target: T1, Thromboxane A2 receptor (Rattus norvegicus, UniProt P34978); test: In vitro thromboxane A2 antagonistic activity on U-46619 (0.1 uM) induced contraction of rat aorta; format: functional, tissue-based
T1 sequence (P34978 whole entry): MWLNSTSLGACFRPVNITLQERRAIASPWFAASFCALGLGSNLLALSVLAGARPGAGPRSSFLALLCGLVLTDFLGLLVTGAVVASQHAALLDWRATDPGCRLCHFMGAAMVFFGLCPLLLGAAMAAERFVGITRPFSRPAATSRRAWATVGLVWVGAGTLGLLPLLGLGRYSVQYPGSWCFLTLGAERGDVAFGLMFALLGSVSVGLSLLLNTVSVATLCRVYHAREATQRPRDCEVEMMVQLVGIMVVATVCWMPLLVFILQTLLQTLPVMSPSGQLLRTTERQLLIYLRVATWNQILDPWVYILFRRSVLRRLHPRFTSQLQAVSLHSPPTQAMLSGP

Cavia porcellus [1] = test: Extra vivo inhibitory activity of compound (0.3 mg/kg p.o.) on the aggregation of guinea pig platelets induced by U-46619 (1 uM); format: functional
Cavia porcellus [2] = test: Ex vivo inhibitory activity (0.3 mg/kg p.o.) on the aggregation of guinea pig platelets induced by arachidonic acid (100 uM); format: functional
Cavia porcellus [3] = species: Cavia porcellus; test: In vitro inhibitory activity for the aggregation of guinea pig platelets induced by U-46,619 (4 uM) was determined; format: functional
Homo sapiens = species: Homo sapiens; test: In vitro inhibitory activity for the aggregation of human platelets induced by U-46,619 (1 uM) was determined; format: functional
Cavia porcellus [4] = species: Cavia porcellus; test: Extra vivo inhibitory activity of compound for the aggregation of guinea pig platelets induced by U-46,619 (4 uM) was determined; format: functional, organism-based
Cavia porcellus [5] = species: Cavia porcellus; test: Extra vivo inhibitory activity for the aggregation of guinea pig platelets induced by U-46,619 (4 uM) was determined; format: functional, organism-based

| SMILES | IC50 (Thromboxane A2 receptor) [µM] | Inhibition (Cavia porcellus [1]) [%] | Inhibition (Cavia porcellus [2]) [%] | further results |
| --- | --- | --- | --- | --- |
| O=C(O)Cc1ccc2c(c1)CC(CNS(=O)(=O)C1CCCCC1)C2 (configuration not stated) | 1.2 |  |  |  |
| O=C(O)Cc1ccc2c(c1)CC(CNS(=O)(=O)c1ccccc1)C2 (configuration not stated) | 0.0129 |  |  |  |
| O=C([O-])c1ccc2c(c1)CC(CNS(=O)(=O)c1ccc(Cl)cc1)C2.[Na+] (configuration not stated) | 0.0263 | 58 | 29 |  |
| O=C(O)c1ccc2c(c1)CC(CCCCNS(=O)(=O)c1ccc(Cl)cc1)C2 (configuration not stated) | > 0.479 |  |  |  |
| O=C(O)c1ccc2c(c1)CC(CCCNS(=O)(=O)c1ccc(Cl)cc1)C2 (configuration not stated) | 0.0851 |  |  |  |
| O=C(O)Cc1ccc2c(c1)CC(CCCCNS(=O)(=O)c1ccc(Cl)cc1)C2 (configuration not stated) | 0.977 |  |  |  |
| O=C([O-])CCCc1ccc2c(c1)CC(CNS(=O)(=O)c1ccc(Cl)cc1)C2.[Na+] (configuration not stated) | 0.0389 | 100 | 100 | IC50 (Cavia porcellus [3]): 0.23 µM; IC50 (Homo sapiens): 2.69 µM; ED50 (Cavia porcellus [4]): 0.083 mg/kg |
| O=C(O)Cc1ccc2c(c1)CC(CNS(=O)(=O)c1cccc3ccccc13)C2 (configuration not stated) | 0.295 |  |  |  |
| O=C(O)Cc1ccc2c(c1)CC(CNS(=O)(=O)c1ccc(Cl)cc1)O2 (configuration not stated) | 0.141 |  |  |  |
| O=C(O)CCCCc1ccc2c(c1)CC(CNS(=O)(=O)c1ccc(Cl)cc1)C2 (configuration not stated) | 0.0355 |  |  |  |
| O=C([O-])CCc1ccc2c(c1)CC(CNS(=O)(=O)c1ccc(Cl)cc1)C2.[Na+] (configuration not stated) | 0.0148 | 98 | 57 |  |
| O=C(O)Cc1ccc2c(c1)CC(CCCNS(=O)(=O)c1ccc(Cl)cc1)C2 (configuration not stated) | 0.513 |  |  |  |
| O=C(O)c1ccc2c(c1)CC(CCNS(=O)(=O)c1ccc(Cl)cc1)C2 (configuration not stated) | 0.0661 |  |  |  |
| O=C(O)Cc1ccc(CCNS(=O)(=O)c2ccc(Cl)cc2)cc1 [DALTROBAN] |  | 55 | 25 | IC50 (Cavia porcellus [3]): 0.5 µM; IC50 (Homo sapiens): 0.37 µM; ED50 (Cavia porcellus [5]): 0.53 mg/kg |
| O=C(O)Cc1ccc2c(c1)CC(CNS(=O)(=O)Cc1ccccc1)C2 (configuration not stated) | 5.9 |  |  |  |
| O=C([O-])Cc1ccc2c(c1)CC(CNS(=O)(=O)c1ccc3ccccc3c1)C2.[Na+] (configuration not stated) | 0.0224 | 100 | 100 | IC50 (Cavia porcellus [3]): 0.31 µM; IC50 (Homo sapiens): 0.29 µM; ED50 (Cavia porcellus [5]): 0.13 mg/kg |
| O=C(O)Cc1ccc2c(c1)CC(CNS(=O)(=O)c1cccs1)C2 (configuration not stated) | 0.0851 |  |  |  |
| O=C([O-])Cc1ccc2c(c1)CC(CNS(=O)(=O)c1ccc(Cl)cc1)C2.[Na+] (configuration not stated) | 0.00302 | 100 | 100 | IC50 (Cavia porcellus [3]): 0.27 µM; IC50 (Homo sapiens): 0.28 µM; ED50 (Cavia porcellus [4]): 0.063 mg/kg |
| O=C([O-])Cc1ccc2c(c1)CC(CCNS(=O)(=O)c1ccc(Cl)cc1)C2.[Na+] (configuration not stated) | 0.0316 | 96 | 83 |  |
| O=C(O)Cc1ccc2c(c1)CC(NS(=O)(=O)c1ccc(Cl)cc1)C2 (configuration not stated) | 0.00219 |  |  |  |
| CCCCCS(=O)(=O)NCC1Cc2ccc(CC(=O)O)cc2C1 (configuration not stated) | 1.4 |  |  |  |
| O=C(O)Cc1ccc2c(c1)CC(CNS(=O)(=O)c1cccnc1)C2 (configuration not stated) | 1.9 |  |  |  |
